According to patent US9498479B2, “Dihydropyrimidine compounds and their application in pharmaceuticals” (SUNSHINE LAKE PHARMA CO., LTD., priority 2013, dated 2016):

System: HBV
Assay: In-vitro anti-HBV activity in stable HBV-producing cell line (HepG2.2.15), HBV DNA in culture fluid by qPCR
Assay type: cell-based
Conditions: Hepatitis B virus, 168 h; HepG2.2.15 cells, HBV DNA in culture media on day 7, qPCR
Method: Specific procedures are as follows:
HepG2.2.15 cells were seeded into each well of 96-well plates, 40,000 cells per well. Cells were treated with cell culture medium containing compounds with different concentrations 24 hours after cell seeding. The final concentration of each compound was 16.4 μM in each well and each compound was diluted to desired concentration using 3-fold gradient dilution protocol, 9 diluted points in duplicate. The culture mediums containing the compounds were refreshed on day 4 post cell seeding. Culture media were collected from the HepG2.2.15 plates on day 7 post cell seeding followed by HBV DNA extraction.
HBV DNA extraction: The HBV DNA extraction was performed using QIAamp 96 DNA Blood Kit (QIAGEN 51161).
PCR for quantification: PCR mix was prepared according to PCR system. PCR mix was dispensed to 96-well optical reaction plates (special for quantification). The standard diluted proportionally was added. Then the sample was added; The plates were sealed with optical adhesive film; PCR system was performed according to programs.
Percentage of HBV inhibition of DNA replication by compound was calculated using the following equation: % Inh.=[1-HBV DNA quantity of sample/HBV DNA quantity of DMSO control]*100.
Calculating EC50 value of compounds to HBV replication: the EC50 values were calculated based on “four-parameter logistic equation” and using GraphPad Prism 5 analysis software.

Compound	EC50
CCOC(=O)C1=C(CN2CC(F)(F)C[C@@H]2CCC(=O)O)NC(c2nccs2)=N[C@H]1c1ccc(F)cc1Br [Example 17, 3-((S)-1-(((R)-6-(2-bromo-4-fluorophenyl)-5-(ethoxycarbonyl)-2-(thiazol-2-yl)-3,6-dihydropyrimidin-4-yl)methyl)-4,4-difluoropyrrolidin-2-yl)propanoic acid]	12 nM
COC(=O)C1=C(CN2CC(F)(F)C[C@H]2CCC(=O)O)NC(c2nccs2)=N[C@H]1c1ccc(F)cc1Cl [Example 15, 3-((R)-1-(((R)-6-(2-chloro-4-fluorophenyl)-5-(methoxycarbonyl)-2-(thiazol-2-yl)-3,6-dihydropyrimidin-4-yl)methyl)-4,4-difluoropyrrolidin-2-yl)propanoic acid]	94 nM
